US20240150377A1, “MODULATORS OF CYSTIC FIBROSIS TRANSMEMBRANE CONDUCTANCE REGULATOR” (VERTEX PHARMACEUTICALS INCORPORATED, priority 2020, published 2024)
Read-outs that look alike come from different tables or passages of the source. Each block holds one molecule with its values, some of them ahead of it.

Biological target: T1, CFTR (Homo sapiens, UniProt P13569, DEL508-508)
T1 construct: endogenous in cells; host or cells: primary human bronchial epithelial cells from CF subjects (F508del/MF-HBE), differentiated at air-liquid interface
T1 sequence (P13569 with tags, fused parts or gaps DEL508-508): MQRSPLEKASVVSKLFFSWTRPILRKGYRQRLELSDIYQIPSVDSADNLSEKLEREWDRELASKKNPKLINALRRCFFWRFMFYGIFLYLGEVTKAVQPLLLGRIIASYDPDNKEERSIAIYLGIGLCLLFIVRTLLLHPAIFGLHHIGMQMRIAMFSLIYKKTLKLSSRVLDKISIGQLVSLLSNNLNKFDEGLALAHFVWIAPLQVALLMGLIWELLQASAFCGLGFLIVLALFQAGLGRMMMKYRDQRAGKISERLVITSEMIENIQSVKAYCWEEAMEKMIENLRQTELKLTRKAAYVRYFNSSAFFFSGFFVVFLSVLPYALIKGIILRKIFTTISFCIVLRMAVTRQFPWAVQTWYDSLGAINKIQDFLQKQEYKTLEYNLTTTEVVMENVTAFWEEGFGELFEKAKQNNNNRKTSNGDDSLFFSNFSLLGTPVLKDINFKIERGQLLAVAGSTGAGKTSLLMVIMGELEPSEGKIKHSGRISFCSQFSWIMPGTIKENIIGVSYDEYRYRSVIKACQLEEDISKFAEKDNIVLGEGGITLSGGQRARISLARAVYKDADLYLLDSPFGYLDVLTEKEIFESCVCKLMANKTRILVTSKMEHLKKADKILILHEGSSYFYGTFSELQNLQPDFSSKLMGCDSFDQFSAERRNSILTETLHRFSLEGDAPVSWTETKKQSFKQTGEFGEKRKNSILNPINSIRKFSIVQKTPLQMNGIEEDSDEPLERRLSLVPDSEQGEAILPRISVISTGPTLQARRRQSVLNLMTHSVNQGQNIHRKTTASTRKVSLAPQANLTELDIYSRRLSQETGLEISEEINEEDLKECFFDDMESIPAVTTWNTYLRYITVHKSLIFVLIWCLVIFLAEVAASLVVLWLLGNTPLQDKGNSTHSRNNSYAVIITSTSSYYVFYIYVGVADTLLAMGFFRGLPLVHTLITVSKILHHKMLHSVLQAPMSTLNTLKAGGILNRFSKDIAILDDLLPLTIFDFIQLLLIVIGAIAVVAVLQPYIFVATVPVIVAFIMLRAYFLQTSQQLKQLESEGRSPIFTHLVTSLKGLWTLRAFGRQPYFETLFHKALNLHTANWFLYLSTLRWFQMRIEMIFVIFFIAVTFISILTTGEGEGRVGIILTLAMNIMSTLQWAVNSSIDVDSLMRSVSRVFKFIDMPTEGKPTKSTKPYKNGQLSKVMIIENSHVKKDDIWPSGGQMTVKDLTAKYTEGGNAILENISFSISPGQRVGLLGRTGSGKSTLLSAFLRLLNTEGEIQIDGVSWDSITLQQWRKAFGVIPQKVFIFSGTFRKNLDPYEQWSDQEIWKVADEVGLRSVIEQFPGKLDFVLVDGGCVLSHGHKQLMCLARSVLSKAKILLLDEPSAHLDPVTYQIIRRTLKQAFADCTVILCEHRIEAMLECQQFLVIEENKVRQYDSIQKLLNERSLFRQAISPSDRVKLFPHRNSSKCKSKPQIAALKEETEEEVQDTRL
Test: HBE assay: Ussing chamber assay of CFTR-mediated short-circuit currents
Format: cell-based
Outline: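 CFTR-mediated Isc (μA/cm²) equals the peak response to apical 20 μM forskolin minus the residual after a 20 μM each BPO/GlyH-101/CFTR inhibitor 172 cocktail, recorded in Ussing chambers at Vhold 0 mV, 37 °C, pH 7.4, with 30 μM apical amiloride. Cells were F508del/MF HBE cultures preincubated 18-24 h with corrector (concentration range or 10 μM) plus 1 μM ivacaftor in 20% human serum.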

[1] = Table 10, read-out: HBE Max activity (%)
[2] = Table 11, read-out: HBE Max Activity (%)
[3] = Table 13, read-out: HBE Max Activity (%)
[4] = Table 10, at 10 μM, read-out: HBE activity at 10 (μM) (%)
[5] = Table 13, at 10 μM, read-out: HBE Activity at 10 μM (%)
[6] = Table 12, read-out: HBE Max Activity (%)
[7] = Table 12, at 10 μM, read-out: HBE Activity at 10 μM (%)
[8] = HBE assay, read-out: HBE Max activity (%)
[9] = Table 11, at 10 μM, read-out: HBE Activity at 10 μM (%)
[10] = read-out: HBE Activity at 10 μM (%)
[11] = HBE assay, 10 μM, read-out: HBE Activity at 10 μM (%)

SMILES: Cc1cccc(C)c1-c1cc2nc(n1)NS(=O)(=O)c1cccc(c1)C(=O)N(Cc1ncc(N3CCC4(CCC4)C3)cn1)[C@H](CC(C)(C)C)CO2 [Compound 612]
- EC50 (Table 11, read-out: HBE EC50): < 1 µM
- Emax [2]: > 60%

SMILES: Cc1cccc(C)c1-c1cc2nc(n1)NS(=O)(=O)c1cccc(c1)C(=O)N(CC(=O)N1C[C@@H](C)[C@@H](C)C1)[C@H](CC(C)(C)C)CO2 [Compound 202]
- activation at 10 µM [5]: > 600%

SMILES: Cc1cccc(C)c1-c1cc2nc(n1)NS(=O)(=O)c1cccc(c1)C(=O)N(Cc1cccc(N3CCC[C@H]3C)n1)[C@H](CC1CC1)CO2 [Compound 463]
- EC50 (Table 12, read-out: HBE EC50): < 1 µM
- Emax [6]: > 60%

SMILES: Cc1cccc(C)c1-c1cc2nc(n1)NS(=O)(=O)c1cccc(c1)C(=O)N(Cc1cccc(N(C)C(C)C)n1)[C@H](CC(C)(C)C)CO2 [Compound 737]
- EC50 (Table 11, read-out: HBE EC50): < 1 µM
- Emax [2]: > 60%

SMILES: Cc1cccc(C)c1C1CC2NC(N1)NS(=O)(=O)C1CCCC(C1)C(=O)N(Cc1cccc(-c3c[nH]nc3C(C)(C)C)c1)[C@H](CC(C)(C)C)CO2 (some centres unmarked) [Compound 309]
- Emax [1]: > 60%

SMILES: Cc1cccc(C)c1-c1cc2nc(n1)NS(=O)(=O)c1cccc(c1)C(=O)N(CC1CCCN(CCC(C)(C)C)C1=O)[C@H](CC(C)(C)C)CO2 (some centres unmarked) [Compound 654]
- EC50 (Table 11, read-out: HBE EC50): < 1 µM
- Emax [2]: > 60%

SMILES: Cc1cccc(C)c1-c1cc2nc(n1)NS(=O)(=O)c1cccc(c1)C(=O)N(Cc1nccc(N3CCOCC3)n1)[C@H](CC(C)(C)C)CO2 [Compound 651]
- EC50 (Table 11, read-out: HBE EC50): < 1 µM
- Emax [2]: > 60%

SMILES: Cc1cccc(C)c1-c1cc2nc(n1)NS(=O)(=O)c1cccc(c1)C(=O)N(CC1(C(=O)O)CC1)[C@H](CC(C)(C)C)CO2 [Compound 450]
- activation at 10 µM [7]: 30 to 60%
- EC50 (Table 12, read-out: HBE EC50): < 1 µM

SMILES: Cc1cccc(C)c1-c1cc2nc(n1)NS(=O)(=O)c1cccc(c1)C(=O)N(Cc1ccc(OC(C)C)cn1)[C@H](CC(C)(C)C)CO2 [Compound 744]
- EC50 (Table 11, read-out: HBE EC50): < 1 µM
- Emax [2]: > 60%

SMILES: Cc1cccc(C)c1-c1cc2nc(n1)NS(=O)(=O)c1cccc(c1)C(=O)N(Cc1cccc(N3CCCC3(C)C)n1)[C@H](CC(C)(C)C)CO2 [Compound 592]
- EC50 (Table 12, read-out: HBE EC50): 1 to 3 µM
- Emax [6]: > 60%

SMILES: COCCN1CCC(CN2C(=O)c3cccc(c3)S(=O)(=O)Nc3nc(cc(-c4c(C)cccc4C)n3)OC[C@H]2CC(C)(C)C)C1=O (some centres unmarked) [Compound 639]
- EC50 (Table 11, read-out: HBE EC50): < 1 µM
- Emax [2]: > 60%

SMILES: Cc1cccc(C)c1-c1cc2nc(n1)NS(=O)(=O)c1cccc(c1)C(=O)N(Cc1c(C)n[nH]c1C)[C@H](CC(C)(C)C)CO2 [Compound 485]
- activation at 10 µM [4]: > 60%

SMILES: Cc1cccc(C)c1-c1cc2nc(n1)NS(=O)(=O)c1cccc(c1)C(=O)N(CC1CCCC(C)(C)O1)[C@H](CC(C)(C)C)CO2 (single isomer, unassigned) [Compound 19]
- activation at 10 µM [9]: > 60%

SMILES: Cc1cccc(C)c1-c1cc2nc(n1)NS(=O)(=O)c1cccc(c1)C(=O)N(Cc1cncc(N3CCC[C@H]3C3CC3)n1)[C@H](CC1CC1)CO2 [Compound 1502]
- EC50 (HBE EC50 (μM), HBE assay): < 1 µM
- activation at 10 µM [10]: > 60%
- Emax (read-out: HBE Max activity (%)): > 60%

SMILES: Cc1cccc(C)c1-c1cc2nc(n1)NS(=O)(=O)c1cccc(c1)C(=O)N(Cc1cncc(N3CCCC[C@@H]3C3CC3)n1)[C@H](CC(C)(C)C)CO2 [Compound 1533]
- activation at 10 µM [10]: > 60%

SMILES: COC[C@@H](C)N(C)c1ccnc(CN2C(=O)c3cccc(c3)S(=O)(=O)Nc3nc(cc(-c4c(C)cccc4C)n3)OC[C@H]2CC(C)(C)C)n1 [Compound 446]
- EC50 (Table 12, read-out: HBE EC50): < 1 µM
- Emax [6]: > 60%

SMILES: COc1cccc(C)c1-c1cc2nc(n1)NS(=O)(=O)c1cccc(c1)C(=O)N(Cc1cccc(N3CCCC3C)n1)[C@H](CC(C)(C)C)CO2 (some centres unmarked) [Compound 578]
- activation at 10 µM [7]: < 30%

SMILES: Cc1cccc(C)c1-c1cc2nc(n1)NS(=O)(=O)c1cccc(c1)C(=O)N(Cc1cnnn1C)[C@H](CC(C)(C)C)CO2 [Compound 774]
- activation at 10 µM [9]: > 60%

SMILES: Cc1cccc(C)c1-c1cc2nc(n1)NS(=O)(=O)c1cccc(c1)C(=O)N(CC(=O)N(C)CC1CCCCO1)[C@H](CC(C)(C)C)CO2 (some centres unmarked) [Compound 225]
- activation at 10 µM [5]: > 600%

SMILES: Cc1cccc(C)c1-c1cc2nc(n1)NS(=O)(=O)c1cccc(c1)C(=O)N(Cc1cccc(N3CCCC3C(F)(F)F)n1)[C@H](CC(C)(C)C)CO2 (some centres unmarked) [Compound 549]
- activation at 10 µM [7]: > 600%

SMILES: Cc1cnc(CN2C(=O)c3cccc(c3)S(=O)(=O)Nc3nc(cc(-c4c(C)cccc4C)n3)OC[C@H]2CC(C)(C)C)nc1N(C)CC(C)(C)C [Compound 328]
- EC50 (Table 12, read-out: HBE EC50): < 1 µM
- Emax [6]: > 60%

SMILES: Cc1cccc(C)c1-c1cc2nc(n1)NS(=O)(=O)c1cccc(c1)C(=O)N(Cc1cccc(N(C(C)C)C(C)C)n1)[C@H](CC(C)(C)C)CO2 [Compound 637]
- EC50 (Table 11, read-out: HBE EC50): 3 to 30 µM
- Emax [2]: > 60%

SMILES: CCN(C)c1cccc(CN2C(=O)c3cccc(c3)S(=O)(=O)Nc3nc(cc(-c4c(C)cccc4C)n3)OC[C@H]2CC(C)(C)C)n1 [Compound 715]
- EC50 (Table 11, read-out: HBE EC50): 1 to 3 µM
- Emax [2]: > 60%

SMILES: Cc1cccc(C)c1-c1cc2nc(n1)NS(=O)(=O)c1cccc(c1)C(=O)N(Cc1ncc(C3CC(C)(C)C3)cn1)[C@H](CC(C)(C)C)CO2 [Compound 158]
- EC50 (Table 13, read-out: HBE EC50): < 1 µM
- Emax [3]: > 60%

SMILES: Cc1cccc(C)c1-c1cc2nc(n1)NS(=O)(=O)c1cccc(c1)C(=O)N(Cc1ccccc1OCC(=O)NN)[C@H](CC(C)(C)C)CO2 [Compound 777]
- activation at 10 µM [4]: > 60%

SMILES: Cc1cccc(C)c1-c1cc2nc(n1)NS(=O)(=O)c1cccc(c1)C(=O)N(Cc1ccc(N3CCC(C(C)(C)O)CC3)cn1)[C@H](CC(C)(C)C)CO2 [Compound 254]
- activation at 10 µM [5]: > 600%

SMILES: Cc1cccc(C)c1-c1cc2nc(n1)NS(=O)(=O)c1cccc(c1)C(=O)N(Cc1ccc(-c3ccccc3)cn1)[C@H](CC(C)(C)C)CO2 [Compound 499]
- EC50 (Table 10, read-out: HBE EC50): < 1 µM
- Emax [1]: > 60%

Now from value to molecule:

- Emax [1]: > 60%
SMILES: Cc1cccc(C)c1-c1cc2nc(n1)NS(=O)(=O)c1cccc(c1)C(=O)N(Cc1ncc(N(C)C)cn1)[C@H](CC(C)(C)C)CO2 [Compound 1072]

- EC50 (Table 13, read-out: HBE EC50): < 1 µM
- Emax [3]: > 60%
SMILES: Cc1cccc(C)c1-c1cc2nc(n1)NS(=O)(=O)c1cccc(c1)C(=O)N(Cc1ncc(N3CC4(COC4)C3)cn1)[C@H](CC(C)(C)C)CO2 [Compound 867]

- activation at 10 µM [4]: > 60%
SMILES: Cc1cccc(C)c1-c1cc2nc(n1)NS(=O)(=O)c1cccc(c1)C(=O)N(Cc1cc(C)n(C)n1)[C@H](CC(C)(C)C)CO2 [Compound 828]

- EC50 (HBE assay, read-out: HBE EC50): < 1 µM
- Emax [8]: > 60%
SMILES: Cc1cccc(C)c1-c1cc2nc(n1)NS(=O)(=O)c1cccc(c1)C(=O)N(Cc1ncc(N3CCC(C)(C)C3)cn1)[C@H](CC1CC1)CO2 [Compound 1464]

- Emax [1]: > 60%
SMILES: Cc1cccc(C)c1-c1cc2nc(n1)NS(=O)(=O)c1cccc(c1)C(=O)N(Cc1ccc3c(n1)C(C)CCO3)C(CC(C)(C)C)CO2 (centres unmarked) [Compound 794]

- EC50 (Table 12, read-out: HBE EC50): < 1 µM
- Emax [6]: > 60%
SMILES: Cc1cccc(C)c1-c1cc2nc(n1)NS(=O)(=O)c1cccc(c1)C(=O)N(Cc1ccc(N3CCC(C)(C)C3)nc1)[C@H](CC(C)(C)C)CO2 [Compound 883]

- EC50 (Table 11, read-out: HBE EC50): < 1 µM
- Emax [2]: > 60%
SMILES: COCCN(C)c1ccnc(CN2C(=O)c3cccc(c3)S(=O)(=O)Nc3nc(cc(-c4c(C)cccc4C)n3)OC[C@H]2CC(C)(C)C)c1 [Compound 887]

- EC50 (HBE assay, read-out: HBE EC50): < 1 µM
- Emax [8]: > 60%
SMILES: CCOc1cnc(CN2C(=O)c3cccc(c3)S(=O)(=O)Nc3nc(cc(-c4c(C)cccc4C)n3)OC[C@H]2CC2(C(F)(F)F)CC2)nc1 [Compound 1490]

- activation at 10 µM [5]: > 600%
SMILES: Cc1cccc(C)c1-c1cc2nc(n1)NS(=O)(=O)c1cccc(c1)C(=O)N(Cc1ncc(Br)cc1C(F)(F)F)[C@H](CC(C)(C)C)CO2 [Compound 1119]

- activation at 10 µM [11]: > 60%
SMILES: COCC(COC)N(C)c1cncc(CN2C(=O)c3cccc(c3)S(=O)(=O)Nc3nc(cc(-c4c(C)cccc4C)n3)OC[C@H]2CC(C)(C)C)n1 [Compound 1531]

- EC50 (Table 10, read-out: HBE EC50): < 1 µM
SMILES: Cc1cccc(C)c1-c1cc2nc(n1)NS(=O)(=O)c1cccc(c1)C(=O)N(CC1CCC(N3C[C@@H](C)O[C@@H](C)C3)CC1)[C@H](CC(C)(C)C)CO2 (some centres unmarked) [Compound 914]

- EC50 (Table 10, read-out: HBE EC50): < 1 µM
- Emax [1]: > 60%
SMILES: Cc1cccc(C)c1-c1cc2nc(n1)NS(=O)(=O)c1cccc(c1)C(=O)N(Cc1ccc(OCC(=O)N(C)C)cc1)[C@H](CC(C)(C)C)CO2 [Compound 779]

- activation at 10 µM [7]: > 600%
SMILES: Cc1cccc(C)c1-c1cc2nc(n1)NS(=O)(=O)c1cccc(c1)C(=O)N(Cc1cnc3ccccn13)[C@H](CC(C)(C)C)CO2 [Compound 879]

- EC50 (Table 13, read-out: HBE EC50): < 1 µM
- Emax [3]: > 60%
SMILES: COC1CC2(C1)CN(c1cnc(CN3C(=O)c4cccc(c4)S(=O)(=O)Nc4nc(cc(-c5c(C)cccc5C)n4)OC[C@H]3CC(C)(C)C)nc1)C2 [Compound 868]

- activation at 10 µM [11]: > 60%
SMILES: Cc1cccc(C)c1-c1cc2nc(n1)NS(=O)(=O)c1cccc(c1)C(=O)N(Cc1ccc3c(C4CC4)cn(C)c3n1)[C@H](CC(C)(C)C)CO2 [Compound 1303, (11R)-12-[(3-Cyclopropyl-1-methyl-pyrrolo[2,3-b]pyridin-6-yl)methyl]-6-(2,6-dimethylphenyl)-11-(2,2-dimethylpropyl)-2,2-dioxo-9-oxa-2λ^6-thia-3,5,12,19-tetrazatricyclo[12.3.1.14,8]nonadeca-1(18),4(19),5,7,14,16-hexaen-13-one]

- EC50 (HBE assay, read-out: HBE EC50): < 1 µM
- Emax [8]: > 60%
SMILES: Cc1cccc(C)c1-c1cc2nc(n1)NS(=O)(=O)c1cccc(c1)C(=O)N(Cc1ncc(OCC(F)F)cn1)[C@H](CC(C)(C)C)CO2 [Compound 1416]
